# According to patent US12378328B2, “Biohybrid peptidoglycan oligomers” (Nanyang Technological University, priority 2019, dated 2025):
# Assays:
# [1] = tested on: E. faecalis OG1RF; assay: TIRF microscopy of wild type and L-form bacteria; assay type: cell-based; conditions: 30 min, 37° C.; for fluorescence localisation, L-form cells: L-form E. faecalis OG1RF
# Source text: L-form bacteria and fluorescence microscopy were deployed to further study the interaction between PGOs and bacterial cell walls. L-form bacteria are deficient in cell wall components (referring to substrates forming the cell wall) or cell wall fragments (referring to the residues formed after cell autolysis) on their surface. BOCILLIN™ FL (Boc-FL), a fluorescent penicillin-derivative, was used to compare the localisation of penicillin-derivatives to that of PGOs.
# The localisation of PGOs-rhodamine was also compared to the membrane dye Polymyxin B-BODIPY FL (Polymyxin B). […] In comparison, the PGOs localised in discrete punctae on the L-form cell surfaces. […] Thus, it is concluded that PGOs' localisation patterns within bacterial cell walls strongly resemble penicillin-derivatives (FIG. 9, top row).
# L-forms were generated using DM3 agar by modified methods from reported protocol (Molec. Gen. Genet., 1979, 168, 111-115). DM3 medium consists of 1.2 wt % agar, 0.5 wt % Tryptone, 0.5 wt % yeast extract, 1 M Succinate (pH 7.3), 3.5 wt % K2HPO4 and 1.5 wt % KH2PO4, 20 wt % Glucose, 1 M MgCl2 and 2 wt % BSA, with the balance being water. Parental strain E. faecalis OG1RF was grown overnight at 37° C. in DM3 broth. 100 μL of an overnight culture was directly plated on DM3 agar plates supplemented with 200 μg/ml penicillin G. The plates were incubated at 37° C. Small fried egg-like shaped colonies appeared after 5 days. The colonies were restreaked on DM3 agar with 200 μg/ml penicillin G for a few times to get pure colonies, and serial passaging (ten times) of pure colonies in DM3 agar with decreasing penicillin G concentrations to generate stable L-forms. The stable L-forms were stored at −80° C. in 20% glycerol.
# Fluorescence microscopy was performed on Nikon TIRF microscope (Nikon instruments, NY, USA). BODIPY FL and sulforhodamine B were excited at 488 and 560 nm and emitted at 512 and 580 nm respectively. […]
# [2] = tested on: S. aureus and E. faecalis; assay: STED super-resolution microscopy of cell walls that incorporated PGOs; assay type: cell-based
# Protocol: To prepare samples for super resolution STED microscopy, overnight broth cultures were grown in 5 ml of fresh culture broth (1:100 dilution) to prepare logarithmic phase cultures after incubation at 37° C. for 4 hours in a shaking incubator (225 rpm). Then, bacteria cells were pelleted by centrifugation at 1,500×g for 5 min, suspended in culture media (MHB and BHI) at a concentration of 10^8 CFU ml^−1 and incubated for 1 h in the dark in the presence of 100 μg/ml of rhodamine-labeled derivative of 1 at 37° C. with agitation (225 rpm). […] Cells were fixed for 1 h at 37° C. in a shaking incubator (225 rpm), washed three times in PBS and applied to a sterile glass bottom collagen coated dish (MatTek Corporation).
# STED super resolution microscopy was performed on a Leica TCS SP8 STED-3× microscope (Leica Microsystems, Wetzlar, Germany) at SingHealth Advanced Biomaging Core. 479 nm and 556 nm lasers were used for fluorescence excitation, while 660 nm STED laser was used for depletion. In order to achieve maximum lateral resolution, all images were acquired in 2D STED mode. Further image processing required deconvolution, which was done using Huygens Professional software (Scientific Volume Imaging, Hilversum, Netherlands).
# To characterize the bacterial PG cell walls that incorporated PGOs, the microscope images obtained from Example 5 were further analysed.
Compound,"fluorescence localisation, L-form cells [1]",localisation of signal on the bacterial cell [2],"fluorescence localisation, wild type cells ([1]; wild type E. faecalis OG1RF)"
Polymyxin B,Strong uniform membranous staining,–,–
CCCCN(CCCC)c1ccc(/C=C/c2cc[n+](CCC[N+](C)(C)CCCN)cc2)cc1.Cl.[Cl-].[Cl-] [FM 1-43fx],–,adsorbed directly onto the bacterial cell surface,–
Cc1cc(C)n2c1C=C1C=CC(CCC(=O)Nc3ccc(OCC(=O)N[C@@H]4C(=O)N5[C@@H]4SC(C)(C)[C@@H]5C(=O)[O-])cc3)=[N+]1[B-]2(F)F.[Na+] [Boc-FL],only a few distinct fluorescent punctae,–,intense fluorescence at the septum region and also the adjacent cell surface
